Assay results taken from EPA's ToxValDB 9.5 (doi:10.2903/j.efsa.2013.3220).
≈ marks a conversion by molar mass, not a printed value.

Assays:
Lepomis macrochirus = conditions: acute; duration: 96 hours; mortality
Daphnia magna = conditions: chronic/long-term, duration: 21 days
Bibionidae = conditions: chronic/long-term, duration: 28 days
Rattus norvegicus = conditions: for LD50: acute, oral, mortality
Zea sp. = conditions: acute, duration: 14 days
Pimephales promelas = conditions: chronic/long-term; duration: 32 days; body weight
Colinus virginianus = conditions: for LD50: acute, oral, mortality
Apis mellifera = conditions: acute, mortality
Canidae = conditions: chronic; duration: 1 years; oral; M/F; Dog Other; histopathology: nonneoplastic
Aphidius rhopalosiphi = assay: LR50; higher = less toxic; conditions: acute; duration: 48 hours; mortality
Typhlodromus pyri = assay: LR50; higher = less toxic; conditions: chronic/long-term; duration: 7 days; mortality

In the case of `CCO[C@@H]1[C@@H](OC)[C@H](C)O[C@@H](O[C@@H]2C[C@H]3CC[C@@H]4[C@@H](C=C5C(=O)[C@H](C)[C@@H](O[C@H]6CC[C@H](N(C)C=O)[C@@H](C)O6)CCC[C@H](CC)OC(=O)C[C@H]54)[C@@H]3C2)[C@@H]1OC` [N-demethyl-175-L], the LC50 (Lepomis macrochirus) is reported as 1.55 mg/L (≈ 2.03 µM) and the NOEC (Daphnia magna) is reported as 0.027 µg/L.

`CCO[C@@H]1[C@@H](OC)[C@H](C)O[C@@H](O[C@@H]2C[C@H]3CC[C@@H]4[C@@H](C=C5C(=O)[C@H](C)[C@@H](O[C@H]6CC[C@H](NC)[C@@H](C)O6)CCC[C@H](CC)OC(=O)C[C@H]54)[C@@H]3C2)[C@@H]1OC` [N-demethyl-175-J] showed an LC50 (Lepomis macrochirus) of 2.98 mg/L (≈ 4.06 µM), an NOEC (Daphnia magna) of 0.03 µg/L and an NOEC (Bibionidae) of 0.617 µg/L. It also gave an LD50 (Rattus norvegicus) of 3130 mg/kg-day.

Work on `CCO[C@@H]1[C@@H](OC)[C@H](C)O[C@@H](OC2C[C@H]3CC[C@H]4C5CC(=O)O[C@@H](CC)CCC[C@H](O[C@H]6CC[C@H](N(C)C)[C@@H](C)O6)[C@@H](C)C(=O)C5=C[C@H]4[C@@H]3C2)[C@@H]1OC` (some centres not stated) [Spinetoram] yielded an LEC (Zea sp.; other) of no more than 150 g/ha, an LEC (Zea sp.; seedling emergence) of no more than 150 g/ha and an LC50 (Tagia sp.; acute, duration: 14 days, mortality) greater than 1000 mg/kg. It also gave an NOEC (Tagia sp.; chronic/long-term, duration: 56 days, reproduction) of 18.6 mg/kg, an LC50 (Lepomis macrochirus) of 2.69 mg/L (≈ 3.6 µM) and an NOEC (Pimephales promelas) of 0.182 mg/L. It also gave an LD50 (Colinus virginianus; diet) greater than 2040 mg/kg-day, an LD50 (Colinus virginianus) greater than 2250 mg/kg-day and an NOEL (Colinus virginianus; reproduction developmental) of 95 mg/kg-day. It also gave an NOEC (Daphnia magna; mobility) of 0.0624 µg/L, an NOEC (Bibionidae; M/F, development) of 97.2 µg/kg and an NOEC (Bibionidae; development) of 0.75 µg/L. For the same molecule, the LD50 (Rattus norvegicus) was greater than 5000 mg/kg-day, the NOAEL (Rattus norvegicus; reproduction developmental, reproduction) was 10 mg/kg-day and the LD50 (Apis mellifera; duration: 48 hours, dermal) was 0.024 µg/piece. It also gave an LD50 (Apis mellifera; duration: 72 hours, oral, unspecified) of 0.11 µg/piece, an LD50 (Anas platyrhynchos; acute, oral, unspecified, mortality) greater than 2250 mg/kg-day and an NOEL (Anas platyrhynchos; reproductive) of 149 mg/kg-day. The NOAEL (Canidae) was 2.5 mg/kg-day, the LR50 (Aphidius rhopalosiphi) was 0.0885 g/ha and the LR50 (Typhlodromus pyri) was 0.132 g/ha.
